Data reported in US20200338028A1, “BENZENESULFONAMIDE DERIVATIVES AND METHOD FOR MODULATING LIPID RAFT” (Gongwin Biopharm Co., Ltd., priority 2017, published 2020).
“Also recorded” adds a separate entry of the source.

Key:
[1] = test system: DU-145 cells; experiment: SRB assay, anti-proliferative effect; type: cell-based; conditions: Homo sapiens; DU-145, SRB assay, FIG. 1A; read-out: IC50, inhibition of cell growth
Description: Two castration-resistant prostate cancer (CRPC) cell lines of PC-3 and DU-145 were cultured in RPMI 1640 medium with 5% FBS (v/v), penicillin (100 units/ml) and streptomycin (100 μg/ml). Cultures were maintained in a 37° C. incubator with 5% CO2, and adherent cultures were passaged using 0.05% trypsin-EDTA when they reached about 80% confluence. Prostate cells were from human tissue samples which were obtained following informed consent of the donors and after full review by the Ethics Review Committee at National Taiwan University Hospital. The prostate specimens were from males by transurethral resection of the prostate. All patients with prostatism histories were diagnosed to have benign prostate hyperplasia by rectal digital examination, transrectal sonography of prostate and urodynamic studies. […] SRB assay is an accurate and reproducible assay based upon quantitative SRB staining of cellular proteins, and the process for SRB assay was performed as follows. […] The absorbance of SRB was measured at a wavelength of 515 nm at the time of p-TSA addition (hereinafter referred to as time zero, TZ), and after additional incubation of DMSO (hereinafter referred to as control growth, CTL) or p-TSA (hereinafter referred to as Tx). The percentage of cell growth inhibition was calculated by the formula of [1−(Tx−TZ)/(CTL−TZ)]×100%. […]

[2] = test system: DU-145 cells; experiment: propidium iodide staining, cell cycle distribution by flow cytometry; type: cell-based, human; conditions: DU-145, 24 h, FIG. 2A
Description: Flow cytometric analysis was performed as follows. Cells were harvested by trypsinization, fixed with 70% (v/v) alcohol at 4° C. for 30 min and washed with PBS. After centrifugation, the cells were incubated in phosphate-citric acid buffer (0.2 mol/l NaHPO4, 0.1 mol/l citric acid, pH 7.8) for 30 min at room temperature. The cells were then centrifuged and resuspended with 0.5 ml propidium iodide (PI) solution containing Triton X-100 (0.1% v/v), RNase (100 μg/ml) and PI (80 μg/ml). DNA content was analyzed with the FACScan and CellQuest software (Becton Dickinson, Mountain View, Calif., United States).

[3] = test system: PC-3-derived cancer xenografts; experiment: in vivo anti-tumor xenograft model; set-up: species or system nude mice
Description: In vivo anti-tumor study was performed as follows. PC-3-derived cancer xenografts in nude mice were used as an in vivo model. The nude mice were subcutaneously injected with PC-3 cells (10^7 cell/mouse). The tumors were measured every day. When the tumors reached a volume of 100 mm^3, the mice were divided into two groups (n=8-10), and compound treatment was initiated. p-TSA was dissolved in 15% 1-methyl-2-pyrrolidone (NMP). Vehicle (15% NMP) or p-TSA was given intraperitoneally every other day. The length (1) and width (w) of the tumor were measured, and tumor volume was calculated as lw^2/2. The protocols of the in vivo study were approved by the Animal Care and Use Committee at National Taiwan University. All animal procedures and protocols were approved by AAALAC-accredited facility. Data were presented as mean±standard error of the mean (SEM) for the indicated number of separate experiments. The statistical analysis was performed using one way analysis of variance (ANOVA) for multiple sample sets. Single comparisons of appropriate groups were done with Student's t-test. P-values less than 0.05 are statistically considered significant.
The tumor xenograft in nude mice models after subcutaneously inoculated PC-3 cells was used to conduct in vivo efficacy evaluation of p-TSA. The operator was fully blinded to the experimental treatment. The initial intraperitoneal injection of 75 mg/kg p-TSA was given when the tumor reached a size of 100 mm^3 (p-TSA group 121±40 mm^3 v.s. control group 101±48 mm^3). First, the tumor growth inhibition treatment/control (T/C) ratio was used to quantify the treatment effect of p-TSA in the mouse xenograft model.

IC50 [1]: ~3000 µM
loss of body weight versus control group ([3]; 75 mg/kg intraperitoneally, FIG. 7C): no significant between-group difference
day on which the group reached a 20% loss of body weight ([3]; 75 mg/kg intraperitoneally, control group 12th day): 22 days
Compound: Cc1ccc(S(N)(=O)=O)cc1 [p-TSA, para-toluenesulfonamide]
cell apoptosis [2]: accelerated cell apoptosis
distribution of cell populations in cell cycle phases [2]: accumulation of both PC-3 cells and DU-145 cells in G1 phase
median tumor size ([3]; 75 mg/kg intraperitoneally): 403 mm^3
tumor growth inhibition treatment/control (T/C) ratio ([3]; 75 mg/kg intraperitoneally every other day, end of treatment, FIG. 7A): 0.44
tumor growth rate ([3]; 75 mg/kg intraperitoneally, FIG. 7B): 16.8 mm^3/day
inhibition by median tumor size ([3]; 75 mg/kg intraperitoneally, versus 765 mm^3 in the control group): 47%
inhibition of tumor growth rate ([3]; 75 mg/kg intraperitoneally, versus control group 37.8 mm^3/day): 56%
p-Akt expression in tumors ([3]; six randomly selected tumors, FIG. 7D, listed as PTS): significant inhibitory effect; also recorded: significantly inhibited
